Laboratory results as given in patent US7956074B2, “Aryl-isoxazolo-4-yl-oxadiazole derivatives” (Hoffman-La Roche Inc., priority 2005, dated 2011).

What follows are molecules tested against T1, GABA A receptor α5β3γ2 (Homo sapiens, UniProt P18507+P31644) (assay: [3H]flumazenil competition binding, human GABA A α5β3γ2). Conditions: competition for [3H]flumazenil (0.5 nM) binding, HEK293 cells expressing human (transiently transfected) α5β3γ2; means of two determinations; read-out: Ki[nM] hα5.
T1 construct: expressed in transfected cells; host or cells: HEK293 cells, transiently transfected; membranes prepared
Description: Membrane Preparation and Binding Assay
The affinity of compounds at GABA A receptor subtypes was measured by competition for [3H]flumazenil (85 Ci/mmol; Roche) binding to HEK293 cells expressing rat (stably transfected) or human (transiently transfected) receptors of composition
Cell pellets were suspended in Krebs-tris buffer (4.8 mM KCl, 1.2 mM CaCl2, 1.2 mM MgCl2, 120 mM NaCl, 15 mM Tris; pH 7.5; binding assay buffer), homogenized by polytron for ca. 20 sec on ice and centrifuged for 60 min at 4° C. (50000 g; Sorvall, rotor: SM24=20000 rpm). The cell pellets were resuspended in Krebs-tris buffer and homogenized by polytron for ca. 15 sec on ice. Protein was measured (Bradford method, Bio-Rad) and aliquots of 1 mL were prepared and stored at −80° C.
Assays were incubated to equilibrium for 1 hour at 4° C. and harvested onto GF/C uni-filters (Packard) by filtration using a Packard harvester and washing with ice-cold wash buffer (50 mM Tris; pH 7.5). After drying, filter-retained radioactivity was detected by liquid scintillation counting. Ki values were calculated using Excel-Fit (Microsoft) and are the means of two determinations.

Ki [nM] | Molecule
16.4 | COc1ccccc1-c1nnc(-c2c(-c3ccccc3)noc2C)o1 [Example 4, 2-(2-Methoxy-phenyl)-5-(5-methyl-3-phenyl-isoxazol-4-yl)-[1,3,4]oxadiazole]
31.7 | COc1ccc(-c2nnc(-c3c(-c4ccccc4)noc3C)o2)c(OC)c1 [Example 10, 2-(2,4-Dimethoxy-phenyl)-5-(5-methyl-3-phenyl-isoxazol-4-yl)-[1,3,4]oxadiazole]
171 | COc1cc([N+](=O)[O-])ccc1-c1nnc(-c2c(-c3ccccc3)noc2C)o1 [Example 11, 2-(2-Methoxy-4-nitro-phenyl)-5-(5-methyl-3-phenyl-isoxazol-4-yl)-[1,3,4]oxadiazole]
7.5 | COc1cc(N)ccc1-c1nnc(-c2c(-c3ccccc3)noc2C)o1 [Example 13, 3-Methoxy-4-[5-(5-methyl-3-phenyl-isoxazol-4-yl)-[1,3,4]oxadiazol-2-yl]-phenylamine]
31 | COc1cc(C)ccc1-c1nnc(-c2c(-c3ccccc3)noc2C)o1 [Example 14, 2-(2-Methoxy-4-methyl-phenyl)-5-(5-methyl-3-phenyl-isoxazol-4-yl)-[1,3,4]oxadiazole]
7.7 | COc1cc(NC(=O)C2CC2)ccc1-c1nnc(-c2c(-c3ccccc3)noc2C)o1 [Example 16, Cyclopropanecarboxylic acid {3-methoxy-4-[5-(5-methyl-3-phenyl-isoxazol-4-yl)-[1,3,4]oxadiazol-2-yl]-phenyl}-amide]
48.8 | COc1cc(N(C)C(=O)C2CC2)ccc1-c1nnc(-c2c(-c3ccccc3)noc2C)o1 [Example 17, Cyclopropanecarboxylic acid {3-methoxy-4-[5-(5-methyl-3-phenyl-isoxazol-4-yl)-[1,3,4]oxadiazol-2-yl]-phenyl}-methyl-amide]
124 | COc1cc(NCC2CC2)ccc1-c1nnc(-c2c(-c3ccccc3)noc2CCC2CC2)o1 [Example 18, (4-{5-[5-(2-Cyclopropyl-ethyl)-3-phenyl-isoxazol-4-yl]-[1,3,4]oxadiazol-2-yl}-3-methoxy-phenyl)-cyclopropylmethyl-amine]
11.6 | COc1cc(NCC2CC2)ccc1-c1nnc(-c2c(-c3ccccc3)noc2C)o1 [Example 19, Cyclopropylmethyl-{3-methoxy-4-[5-(5-methyl-3-phenyl-isoxazol-4-yl)-[1,3,4]oxadiazol-2-yl]-phenyl}-amine]
20.5 | COc1cc(N)ccc1-c1nnc(-c2c(-c3ccccc3)noc2CCC2CC2)o1 [Example 20, 4-{5-[5-(2-Cyclopropyl-ethyl)-3-phenyl-isoxazol-4-yl]-[1,3,4]oxadiazol-2-yl}-3-methoxy-phenylamine]
39.6 | COc1cc(F)ccc1-c1nnc(-c2c(-c3ccccc3)noc2C)o1 [Example 24, 2-(4-Fluoro-2-methoxy-phenyl)-5-(5-methyl-3-phenyl-isoxazol-4-yl)-[1,3,4]oxadiazole]
6 | COc1cc(N2CCC(O)CC2)ccc1-c1nnc(-c2c(-c3ccccc3)noc2C)o1 [Example 29, 1-{3-Methoxy-4-[5-(5-methyl-3-phenyl-isoxazol-4-yl)-[1,3,4]oxadiazol-2-yl]-phenyl}-piperidin-4-ol]

The next lines start with the molecule.

Molecule | Ki [nM]
2-(4,5-Difluoro-2-methoxy-phenyl)-5-(5-methyl-3-phenyl-isoxazol-4-yl)-[1,3,4]oxadiazole [Example 87] | 43.8
COc1cc(NCC2CCCO2)c(F)cc1-c1nnc(-c2c(-c3ccccc3)noc2C)o1 (racemic) [Example 130, rac-{2-Fluoro-5-methoxy-4-[5-(5-methyl-3-phenyl-isoxazol-4-yl)-[1,3,4]oxadiazol-2-yl]-phenyl}-(tetrahydro-furan-2-ylmethyl)-amine] | 10.5
Cc1onc(-c2ccccc2)c1-c1nnc(-c2ccccc2)o1 [Example 1, 2-(5-Methyl-3-phenyl-isoxazol-4-yl)-5-phenyl-[1,3,4]oxadiazole] | 400
Cc1ccccc1-c1nnc(-c2c(-c3ccccc3)noc2C)o1 [Example 2, 2-(5-Methyl-3-phenyl-isoxazol-4-yl)-5-o-tolyl-[1,3,4]oxadiazole] | 234
COc1cccc(-c2nnc(-c3c(-c4ccccc4)noc3C)o2)c1 [Example 3, 2-(3-Methoxy-phenyl)-5-(5-methyl-3-phenyl-isoxazol-4-yl)-[1,3,4]oxadiazole] | 391
COc1ccc(-c2nnc(-c3c(-c4ccccc4)noc3C)o2)cc1 [Example 5, 2-(4-Methoxy-phenyl)-5-(5-methyl-3-phenyl-isoxazol-4-yl)-[1,3,4]oxadiazole] | 31.1
Cc1onc(-c2ccccc2)c1-c1nnc(-c2cccnc2Cl)o1 [Example 6, 2-Chloro-3-[5-(5-methyl-3-phenyl-isoxazol-4-yl)-[1,3,4]oxadiazol-2-yl]-pyridine] | 146
Cc1onc(-c2ccccc2)c1-c1nnc(-c2cccc3cccnc23)o1 [Example 7, 8-[5-(5-Methyl-3-phenyl-isoxazol-4-yl)-[1,3,4]oxadiazol-2-yl]-quinoline] | 40.6
CCOc1ccccc1-c1nnc(-c2c(-c3ccccc3)noc2C)o1 [Example 8, 2-(2-Ethoxy-phenyl)-5-(5-methyl-3-phenyl-isoxazol-4-yl)-[1,3,4]oxadiazole] | 58.2
Cc1onc(-c2ccccc2)c1-c1nnc(-c2ccccn2)o1 [Example 9, 2-[5-(5-Methyl-3-phenyl-isoxazol-4-yl)-[1,3,4]oxadiazol-2-yl]-pyridine] | 286
Cc1onc(-c2ccccc2)c1-c1nnc(-c2ccccc2N)o1 [Example 12, 2-[5-(5-Methyl-3-phenyl-isoxazol-4-yl)-[1,3,4]oxadiazol-2-yl]-phenylamine] | 106
COc1ccc(OC)c(-c2nnc(-c3c(-c4ccccc4)noc3C)o2)c1 [Example 15, 2-(2,5-Dimethoxy-phenyl)-5-(5-methyl-3-phenyl-isoxazol-4-yl)-[1,3,4]oxadiazole] | 14.8
COc1cc(N(S(C)(=O)=O)S(C)(=O)=O)ccc1-c1nnc(-c2c(-c3ccccc3)noc2C)o1 [Example 21, N-{3-Methoxy-4-[5-(5-methyl-3-phenyl-isoxazol-4-yl)-[1,3,4]oxadiazol-2-yl]-phenyl}-bis-methanesulfonyl-amine] | 85
COc1cc(NC(=O)c2ccsc2)ccc1-c1nnc(-c2c(-c3ccccc3)noc2C)o1 [Example 23, Thiophene-3-carboxylic acid-{3-methoxy-4-[5-(5-methyl-3-phenyl-isoxazol-4-yl)-[1,3,4]oxadiazol-2-yl]-phenyl}-amide] | 18.3
Cc1onc(-c2ccccc2)c1-c1nnc(-c2ccc3nn[nH]c3c2)o1 [Example 25, 6-[5-(5-Methyl-3-phenyl-isoxazol-4-yl)-[1,3,4]oxadiazol-2-yl]-1H-benzotriazole] | 30.9
COc1cc(N2CCSCC2)ccc1-c1nnc(-c2c(-c3ccccc3)noc2C)o1 [Example 26, 4-{3-Methoxy-4-[5-(5-methyl-3-phenyl-isoxazol-4-yl)-[1,3,4]oxadiazol-2-yl]-phenyl}-thiomorpholine] | 10.2
Cc1onc(-c2ccccc2)c1-c1nnc(-c2ccc3[nH]cnc3c2)o1 [Example 27, 5-[5-(5-Methyl-3-phenyl-isoxazol-4-yl)-[1,3,4]oxadiazol-2-yl]-1H-benzoimidazole] | 22.1
COc1cc(N2CCS(=O)(=O)CC2)ccc1-c1nnc(-c2c(-c3ccccc3)noc2C)o1 [Example 28, 4-{3-Methoxy-4-[5-(5-methyl-3-phenyl-isoxazol-4-yl)-[1,3,4]oxadiazol-2-yl]-phenyl}-thiomorpholine 1,1-dioxide] | 3.2
Cc1onc(-c2ccccc2)c1-c1nnc(-c2ccc(S(C)(=O)=O)cc2)o1 [Example 30, 2-(4-Methanesulfonyl-phenyl)-5-(5-methyl-3-phenyl-isoxazol-4-yl)-[1,3,4]oxadiazole] | 226
Cc1onc(-c2ccccc2)c1-c1nnc(-c2cccc(S(C)(=O)=O)c2)o1 [Example 31, 2-(3-Methanesulfonyl-phenyl)-5-(5-methyl-3-phenyl-isoxazol-4-yl)-[1,3,4]oxadiazole] | 199
Cc1onc(-c2ccccc2)c1-c1nnc(-c2ccc([N+](=O)[O-])cc2)o1 [Example 32, 5-(5-Methyl-3-phenyl-isoxazol-4-yl)-2-(4-nitro-phenyl)-[1,3,4]oxadiazole] | 240
COc1cc(-n2ccnc2)ccc1-c1nnc(-c2c(-c3ccccc3)noc2C)o1 [Example 33, 2-(4-Imidazol-1-yl-2-methoxy-phenyl)-5-(5-methyl-3-phenyl-isoxazol-4-yl)-[1,3,4]oxadiazole] | 7.5
Cc1onc(-c2ccccc2)c1-c1nnc(-c2ccc3[nH]c(=O)[nH]c3c2)o1 [Example 34, 5-[5-(5-Methyl-3-phenyl-isoxazol-4-yl)-[1,3,4]oxadiazol-2-yl]-1,3-dihydro-benzoimidazol-2-one] | 7.9
Cc1onc(-c2ccccc2)c1-c1nnc(-c2ccc(N)cc2)o1 [Example 35, 4-[5-(5-Methyl-3-phenyl-isoxazol-4-yl)-[1,3,4]oxadiazol-2-yl]-phenylamine] | 31.2
Cc1onc(-c2ccccc2)c1-c1nnc(-c2ccc(F)cc2)o1 [Example 36, 2-(4-Fluoro-phenyl)-5-(5-methyl-3-phenyl-isoxazol-4-yl)-[1,3,4]oxadiazole] | 134
